# Source: patent US20230414510A1 (CRITITECH, INC., priority 2020, published 2023)
# Legend:
# [1] = Mass median aerodynamic diameter (MMAD) of aerosol, rotating brush generator and TSI Aerodynamic Particle Sizer 3321; type: physicochemical; conditions: for GSD: second figure of the MMAD/GSD cell
# [2] = Particle size distribution (PSD) by laser diffraction, Malvern Mastersizer 3000 Aero S; type: physicochemical; conditions: for Mean Geometric Particle size Dv50: Table 8
# Method: (§1) Approximately 63 precipitation runs (approximately 500 mg to 10 grams) were conducted on the RC612B precipitation unit, according to examples provided above. Variables modified between each precipitation are detailed in Tables 1-3 below. The precipitates were analyzed by laser diffraction to determine PSD, BET sorptometry to determine SSA, and SEM to determine habit and support PSD and SSA data.
# PSD analyses were conducted on a Malvern Mastersizer™ 3000 using the Aero S™ dispersion unit according to manufacturer's instructions.
# [3] = Specific surface area (SSA) by BET sorptometry; type: physicochemical; conditions: for Surface Area: Table 8
# Method: The BET specific surface area test procedure is a compendial method included in both the United States Pharmacopeia and the European Pharmacopeia.
# as §1
# SSA determination analyses were conducted on a Porous Materials, Inc., Automated BET Sorptometer BET-202A according to manufacturer's instructions.
# [4] = Bulk density (not tapped); type: physicochemical
# Description: As used herein, the bulk density (not tapped) of a particle is the ratio of the mass to the volume (including the interparticulate void volume) of an untapped powder sample.
# Tapped density = type: physicochemical; conditions: for Bulk Tapped Density: Table 8
# Description: As used herein, the tapped density of a particle is obtained by mechanically tapping a graduated cylinder containing the sample until little further volume change is observed.
# [5] = Dissolution in 40% isopropanol 37° C., rotating paddle 50 rpm; type: physicochemical
# Method: Exemplary processed products were also used for dissolution for comparison to unprocessed/raw material. Dissolution studies were carried out in 40% isopropanol 37° C. with a rotating paddle at 50 rpm.
# [6] = biological target: T1, TMEM16A (Anoctamin-1, Ano1) (Homo sapiens, UniProt Q5XXA6); conditions: Miner et al., 2019; cited from earlier work
# T1 sequence (Q5XXA6 1-986): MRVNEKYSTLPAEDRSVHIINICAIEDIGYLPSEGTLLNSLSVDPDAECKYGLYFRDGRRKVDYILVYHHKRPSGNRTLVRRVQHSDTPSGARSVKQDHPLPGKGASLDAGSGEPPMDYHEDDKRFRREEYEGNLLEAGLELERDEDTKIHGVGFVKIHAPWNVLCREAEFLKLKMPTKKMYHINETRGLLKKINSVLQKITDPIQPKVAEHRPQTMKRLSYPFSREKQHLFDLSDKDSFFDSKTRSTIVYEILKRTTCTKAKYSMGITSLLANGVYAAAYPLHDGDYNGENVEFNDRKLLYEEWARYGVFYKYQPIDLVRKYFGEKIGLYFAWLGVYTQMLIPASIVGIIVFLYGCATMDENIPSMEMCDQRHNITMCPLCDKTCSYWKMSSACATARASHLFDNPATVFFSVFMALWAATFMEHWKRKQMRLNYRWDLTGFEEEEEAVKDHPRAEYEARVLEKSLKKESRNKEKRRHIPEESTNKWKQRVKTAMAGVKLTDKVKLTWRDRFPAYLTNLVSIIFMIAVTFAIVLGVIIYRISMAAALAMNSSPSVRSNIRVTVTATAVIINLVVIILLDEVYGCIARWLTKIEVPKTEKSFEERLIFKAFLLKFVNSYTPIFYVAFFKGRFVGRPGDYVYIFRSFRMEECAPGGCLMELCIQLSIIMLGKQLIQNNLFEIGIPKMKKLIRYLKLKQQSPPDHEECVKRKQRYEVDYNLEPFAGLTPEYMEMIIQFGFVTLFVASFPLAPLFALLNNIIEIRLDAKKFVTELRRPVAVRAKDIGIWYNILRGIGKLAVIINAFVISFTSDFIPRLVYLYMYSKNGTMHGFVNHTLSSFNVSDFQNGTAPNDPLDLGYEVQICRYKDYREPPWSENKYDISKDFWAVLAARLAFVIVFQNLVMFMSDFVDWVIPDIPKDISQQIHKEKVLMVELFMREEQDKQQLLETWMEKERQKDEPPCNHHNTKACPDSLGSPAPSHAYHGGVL
# [7] = intravenous; Andrews et al., 1982; Schweizer et al., 2018; cited from earlier work
# [8] = listed as Milled (micronized) Niclosamide Drug Substance
# [9] = volume distribution, unit not given in Tables 1-3, 6, 7
smiles,measurement,setting,value
"O=C(Nc1ccc([N+](=O)[O-])cc1Cl)c1cc(Cl)ccc1O [Micronized Niclosamide API, niclosamide]",GSD,[1]; [8],1.74
same,Mean Geometric Particle size Dv50,[2]; [8],2.97 microns
same,PSD-Mastersizer Dv-10,[2]; [9],0.765
same,PSD-Mastersizer Dv-50,[2]; [9],2.97
same,PSD-Mastersizer Dv-90,[2]; [9],6.39
same,Surface Area,[3]; [8],3.264 m2/gm
same,Bulk Density,"[4]; Table 8, listed as Milled (micronized) Niclosamide Drug Substance",0.49 gm/cm3
same,Bulk Density,"[4]; not tapped, Tables 1-3 print no unit",0.486
same,Bulk Tapped Density,Tapped density; [8],0.62 gm/cm3
same,Tapped Density,Tapped density; Tables 1-3 print no unit,0.619
same,Dissolution in 40% isopropanol 37C 50 rpm rotating paddle,"[5]; 5 min, listed as Milled (micronized) Niclosamide Drug Substance",2.9%
same,Dissolution in 40% isopropanol 37C 50 rpm rotating paddle,"[5]; 15 min, listed as Milled (micronized) Niclosamide Drug Substance",4.7%
same,Dissolution in 40% isopropanol 37C 50 rpm rotating paddle,"[5]; 30 min, listed as Milled (micronized) Niclosamide Drug Substance",8.4%
same,Dissolution in 40% isopropanol 37C 50 rpm rotating paddle,"[5]; 60 min, listed as Milled (micronized) Niclosamide Drug Substance",12.7%
same,Dissolution in 40% isopropanol 37C 50 rpm rotating paddle,"[5]; 90 min, listed as Milled (micronized) Niclosamide Drug Substance",17.3%
same,Dissolution in 40% isopropanol 37C 50 rpm rotating paddle,"[5]; 120 min, listed as Milled (micronized) Niclosamide Drug Substance",23.3%
"O=C(Nc1ccc([N+](=O)[O-])cc1Cl)c1cc(Cl)ccc1O [Niclosamide Drug Substance, niclosamide]",MMAD,[1]; aerosol from rotating brush generator,2.64 microns
same,GSD,[1],1.82
same,Inhibition of TMEM16A,[6],potent inhibitor
same,Mean Geometric Particle size Dv50,[2],21.1 microns
same,Surface Area,[3],1.359 m2/gm
same,Bulk Density,[4]; Table 8,0.45 gm/cm3
same,Bulk Tapped Density,Tapped density,0.57 gm/cm3
same,Dissolution in 40% isopropanol 37C 50 rpm rotating paddle,[5]; 5 min,1.7%
same,Dissolution in 40% isopropanol 37C 50 rpm rotating paddle,[5]; 15 min,3.8%
same,Dissolution in 40% isopropanol 37C 50 rpm rotating paddle,[5]; 30 min,6.5%
same,Dissolution in 40% isopropanol 37C 50 rpm rotating paddle,[5]; 60 min,11.2%
same,Dissolution in 40% isopropanol 37C 50 rpm rotating paddle,[5]; 90 min,15%
same,Dissolution in 40% isopropanol 37C 50 rpm rotating paddle,[5]; 120 min,20.6%
same,Toxicity when administered intravenously,[7],substantial toxicity
"NCCO.O=C(Nc1ccc([N+](=O)[O-])cc1Cl)c1cc(Cl)ccc1O [Niclosamide ethanolamine, niclosamide ethanolamine]",SSA,"[3]; BET, Tables 4, 5",2.684 m^2/g
